# Reference: ChEMBL document CHEMBL5360622, “Leucettinibs, a Class of DYRK/CLK Kinase Inhibitors Inspired by the Marine Sponge Natural Product Leucettamine B” (J Med Chem, 2023)
# pIC50: −log10 of the molar value.
# Legend:
# [1] = biological target: T1, Dual specificity tyrosine-phosphorylation-regulated kinase 2 (Homo sapiens, UniProt Q92630)
# T1 sequence (Q92630 whole entry): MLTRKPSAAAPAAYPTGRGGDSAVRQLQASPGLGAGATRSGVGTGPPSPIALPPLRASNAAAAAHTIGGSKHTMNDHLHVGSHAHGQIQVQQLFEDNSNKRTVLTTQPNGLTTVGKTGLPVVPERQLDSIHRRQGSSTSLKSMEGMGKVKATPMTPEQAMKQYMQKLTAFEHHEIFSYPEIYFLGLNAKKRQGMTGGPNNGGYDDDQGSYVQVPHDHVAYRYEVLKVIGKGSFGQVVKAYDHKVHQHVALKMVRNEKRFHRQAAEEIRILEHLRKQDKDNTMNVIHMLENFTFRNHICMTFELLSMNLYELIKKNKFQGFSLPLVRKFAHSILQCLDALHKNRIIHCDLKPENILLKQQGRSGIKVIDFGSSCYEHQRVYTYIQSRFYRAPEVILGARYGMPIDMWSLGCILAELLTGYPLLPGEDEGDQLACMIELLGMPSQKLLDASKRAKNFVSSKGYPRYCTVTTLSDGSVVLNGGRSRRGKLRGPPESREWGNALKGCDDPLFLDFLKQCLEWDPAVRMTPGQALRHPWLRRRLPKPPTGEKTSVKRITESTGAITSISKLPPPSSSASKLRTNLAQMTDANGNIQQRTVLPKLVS
# [2] = biological target: Dual specificity protein kinase CLK2 (Homo sapiens, UniProt P49760)
# Sequence of Dual specificity protein kinase CLK2 (P49760 whole entry): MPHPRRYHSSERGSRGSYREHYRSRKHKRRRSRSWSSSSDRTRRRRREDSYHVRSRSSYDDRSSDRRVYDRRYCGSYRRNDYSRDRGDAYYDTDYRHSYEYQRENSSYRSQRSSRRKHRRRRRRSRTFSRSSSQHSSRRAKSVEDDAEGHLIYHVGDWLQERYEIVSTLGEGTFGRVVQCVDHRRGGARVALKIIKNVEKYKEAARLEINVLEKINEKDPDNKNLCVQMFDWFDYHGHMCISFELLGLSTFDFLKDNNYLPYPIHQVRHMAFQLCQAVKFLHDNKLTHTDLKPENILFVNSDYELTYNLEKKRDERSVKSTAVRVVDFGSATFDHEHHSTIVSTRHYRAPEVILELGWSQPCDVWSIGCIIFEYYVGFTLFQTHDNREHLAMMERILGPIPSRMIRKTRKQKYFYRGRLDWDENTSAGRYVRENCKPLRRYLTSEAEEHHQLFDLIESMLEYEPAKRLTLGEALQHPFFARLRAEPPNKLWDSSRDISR
# [3] = biological target: T2, Dual specificity tyrosine-phosphorylation-regulated kinase 3 (Homo sapiens, UniProt O43781)
# T2 sequence (O43781 whole entry): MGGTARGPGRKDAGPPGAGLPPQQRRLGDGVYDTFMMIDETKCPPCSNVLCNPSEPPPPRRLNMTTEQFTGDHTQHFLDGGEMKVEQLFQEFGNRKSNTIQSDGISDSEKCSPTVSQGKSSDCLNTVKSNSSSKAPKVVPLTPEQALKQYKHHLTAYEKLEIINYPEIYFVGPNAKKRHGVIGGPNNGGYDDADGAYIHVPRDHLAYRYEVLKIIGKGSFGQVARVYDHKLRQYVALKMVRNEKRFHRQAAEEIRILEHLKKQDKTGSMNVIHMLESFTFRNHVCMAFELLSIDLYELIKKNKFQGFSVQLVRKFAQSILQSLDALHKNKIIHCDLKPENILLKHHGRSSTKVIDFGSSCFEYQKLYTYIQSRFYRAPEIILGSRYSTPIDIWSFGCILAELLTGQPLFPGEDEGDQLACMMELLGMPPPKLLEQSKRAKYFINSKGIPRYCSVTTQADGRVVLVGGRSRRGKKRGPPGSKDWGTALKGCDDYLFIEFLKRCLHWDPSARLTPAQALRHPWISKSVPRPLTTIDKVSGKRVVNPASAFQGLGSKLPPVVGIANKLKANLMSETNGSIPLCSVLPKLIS
# [4] = biological target: Glycogen synthase kinase-3 beta (Homo sapiens, UniProt P49841); assay type: cell-based, Sf9
# Sequence of Glycogen synthase kinase-3 beta (P49841 whole entry): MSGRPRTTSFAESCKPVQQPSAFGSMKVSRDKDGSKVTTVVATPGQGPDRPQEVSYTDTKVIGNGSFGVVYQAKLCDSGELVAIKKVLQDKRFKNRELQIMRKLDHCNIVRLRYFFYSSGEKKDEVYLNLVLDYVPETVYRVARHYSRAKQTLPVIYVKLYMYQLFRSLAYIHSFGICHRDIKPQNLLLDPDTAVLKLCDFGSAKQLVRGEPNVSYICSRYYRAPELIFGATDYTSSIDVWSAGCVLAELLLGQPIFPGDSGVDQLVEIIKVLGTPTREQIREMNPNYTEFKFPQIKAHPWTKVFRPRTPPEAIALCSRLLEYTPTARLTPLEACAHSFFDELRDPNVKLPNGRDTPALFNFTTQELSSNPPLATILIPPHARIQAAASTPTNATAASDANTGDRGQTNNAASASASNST
# [5] = biological target: Dual specificity protein kinase CLK4 (Homo sapiens, UniProt Q9HAZ1)
# Sequence of Dual specificity protein kinase CLK4 (Q9HAZ1 whole entry): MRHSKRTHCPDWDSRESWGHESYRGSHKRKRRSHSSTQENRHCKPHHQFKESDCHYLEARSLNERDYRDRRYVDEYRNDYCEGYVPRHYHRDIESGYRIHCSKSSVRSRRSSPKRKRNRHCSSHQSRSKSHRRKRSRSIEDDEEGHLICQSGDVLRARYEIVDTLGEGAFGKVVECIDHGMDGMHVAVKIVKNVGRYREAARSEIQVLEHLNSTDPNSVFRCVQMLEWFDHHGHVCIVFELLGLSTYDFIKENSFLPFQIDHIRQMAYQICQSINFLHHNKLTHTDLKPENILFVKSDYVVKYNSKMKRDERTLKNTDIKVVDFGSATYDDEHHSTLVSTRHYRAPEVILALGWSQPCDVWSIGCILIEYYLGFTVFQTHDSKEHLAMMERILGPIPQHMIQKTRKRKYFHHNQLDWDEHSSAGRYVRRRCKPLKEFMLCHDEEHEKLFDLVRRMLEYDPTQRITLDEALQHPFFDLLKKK
# [6] = biological target: Dual specificity protein kinase CLK3 (Homo sapiens, UniProt P49761); assay type: cell-based, Sf9
# Sequence of Dual specificity protein kinase CLK3 (P49761 whole entry): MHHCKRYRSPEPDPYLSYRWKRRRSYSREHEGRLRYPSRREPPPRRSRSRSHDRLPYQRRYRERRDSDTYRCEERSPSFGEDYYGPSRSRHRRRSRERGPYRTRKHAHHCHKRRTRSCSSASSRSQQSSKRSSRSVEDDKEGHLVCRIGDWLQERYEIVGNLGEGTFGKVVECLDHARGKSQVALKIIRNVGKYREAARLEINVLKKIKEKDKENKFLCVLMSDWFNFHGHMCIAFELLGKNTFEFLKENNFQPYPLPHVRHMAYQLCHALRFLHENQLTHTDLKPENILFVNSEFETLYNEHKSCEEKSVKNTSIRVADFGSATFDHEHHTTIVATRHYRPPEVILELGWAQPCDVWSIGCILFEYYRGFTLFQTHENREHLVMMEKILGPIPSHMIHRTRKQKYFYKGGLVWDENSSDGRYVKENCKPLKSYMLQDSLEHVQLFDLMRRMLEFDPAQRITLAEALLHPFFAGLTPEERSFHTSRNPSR
# [7] = biological target: Dual specificity protein kinase CLK1 (Homo sapiens, UniProt P49759); assay type: cell-based, Sf9
# Sequence of Dual specificity protein kinase CLK1 (P49759 whole entry): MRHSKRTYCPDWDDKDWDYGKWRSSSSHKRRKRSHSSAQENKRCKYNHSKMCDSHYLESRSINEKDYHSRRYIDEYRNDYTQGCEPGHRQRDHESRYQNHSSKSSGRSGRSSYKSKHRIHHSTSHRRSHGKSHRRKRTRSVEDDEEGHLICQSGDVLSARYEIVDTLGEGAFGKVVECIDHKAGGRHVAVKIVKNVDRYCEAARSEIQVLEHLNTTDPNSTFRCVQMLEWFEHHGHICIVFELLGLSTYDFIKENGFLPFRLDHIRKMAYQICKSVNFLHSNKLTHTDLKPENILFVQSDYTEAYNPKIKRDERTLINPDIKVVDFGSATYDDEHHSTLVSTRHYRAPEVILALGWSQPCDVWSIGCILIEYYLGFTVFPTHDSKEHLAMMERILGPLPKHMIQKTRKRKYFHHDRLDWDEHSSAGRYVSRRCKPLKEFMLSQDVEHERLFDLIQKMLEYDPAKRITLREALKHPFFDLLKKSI
# [8] = biological target: T3, Dual specificity tyrosine-phosphorylation-regulated kinase 4 (Homo sapiens, UniProt Q9NR20)
# T3 sequence (Q9NR20 whole entry): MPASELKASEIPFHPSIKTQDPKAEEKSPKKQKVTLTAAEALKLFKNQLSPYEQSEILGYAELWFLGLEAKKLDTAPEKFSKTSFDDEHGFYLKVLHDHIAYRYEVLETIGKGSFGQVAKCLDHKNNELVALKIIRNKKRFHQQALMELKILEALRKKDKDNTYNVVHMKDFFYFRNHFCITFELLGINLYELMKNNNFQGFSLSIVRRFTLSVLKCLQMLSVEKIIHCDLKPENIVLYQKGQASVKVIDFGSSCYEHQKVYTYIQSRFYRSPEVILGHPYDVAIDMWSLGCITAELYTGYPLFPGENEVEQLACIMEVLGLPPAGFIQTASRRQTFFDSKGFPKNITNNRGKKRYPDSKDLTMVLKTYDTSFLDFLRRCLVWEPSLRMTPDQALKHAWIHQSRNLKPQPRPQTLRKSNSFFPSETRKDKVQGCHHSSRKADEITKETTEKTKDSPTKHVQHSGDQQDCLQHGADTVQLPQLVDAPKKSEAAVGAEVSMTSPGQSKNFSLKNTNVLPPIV
# [9] = biological target: Cyclin-dependent kinase 5/CDK5 activator 1 (Homo sapiens, UniProt Q00535); assay type: cell-based, Sf9
# Sequence of Cyclin-dependent kinase 5/CDK5 activator 1 (Q00535 whole entry, canonical isoform): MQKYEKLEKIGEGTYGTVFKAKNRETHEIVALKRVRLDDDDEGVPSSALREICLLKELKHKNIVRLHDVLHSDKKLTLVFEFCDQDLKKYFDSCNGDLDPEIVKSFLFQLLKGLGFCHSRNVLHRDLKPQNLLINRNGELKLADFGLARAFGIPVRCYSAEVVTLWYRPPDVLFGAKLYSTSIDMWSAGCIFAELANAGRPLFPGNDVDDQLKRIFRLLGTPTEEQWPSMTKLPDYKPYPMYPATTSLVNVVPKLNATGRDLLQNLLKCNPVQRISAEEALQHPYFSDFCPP
# Sequence of Cyclin-dependent kinase 5/CDK5 activator 1 (Q15078 whole entry, further chain, canonical isoform): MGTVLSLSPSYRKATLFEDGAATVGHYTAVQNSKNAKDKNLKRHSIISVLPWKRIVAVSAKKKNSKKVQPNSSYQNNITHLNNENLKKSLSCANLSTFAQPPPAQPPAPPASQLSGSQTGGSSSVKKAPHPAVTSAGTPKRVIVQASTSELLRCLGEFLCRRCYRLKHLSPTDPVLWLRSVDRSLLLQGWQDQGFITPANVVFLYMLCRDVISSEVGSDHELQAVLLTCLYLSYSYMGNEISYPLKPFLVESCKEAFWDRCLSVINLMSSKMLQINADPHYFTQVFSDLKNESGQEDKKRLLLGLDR
# [10] = biological target: Casein kinase I isoform epsilon (Homo sapiens, UniProt P49674)
# Sequence of Casein kinase I isoform epsilon (P49674 whole entry, canonical isoform): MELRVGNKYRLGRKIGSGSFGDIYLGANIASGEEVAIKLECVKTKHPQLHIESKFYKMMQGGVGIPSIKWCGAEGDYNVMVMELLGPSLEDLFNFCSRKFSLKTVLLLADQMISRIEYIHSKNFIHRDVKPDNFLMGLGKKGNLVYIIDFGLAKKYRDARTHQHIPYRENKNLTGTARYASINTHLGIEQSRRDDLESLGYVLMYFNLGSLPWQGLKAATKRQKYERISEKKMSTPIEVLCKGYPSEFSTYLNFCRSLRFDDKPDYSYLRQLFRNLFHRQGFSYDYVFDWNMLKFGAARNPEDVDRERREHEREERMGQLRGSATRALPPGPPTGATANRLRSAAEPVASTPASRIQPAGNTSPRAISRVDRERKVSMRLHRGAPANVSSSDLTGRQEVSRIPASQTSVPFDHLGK
# [11] = biological target: Dual specificity tyrosine-phosphorylation-regulated kinase 1A (Homo sapiens, UniProt Q13627)
pIC50 [1],pIC50 [2],pIC50 [3],pIC50 [4],pIC50 [5],pIC50 [6],pIC50 [7],pIC50 [8],pIC50 [9],pIC50 [10],pIC50 [11],Structure (SMILES)
< 5.00,6.91,< 5.00,< 5.00,7.43,5.54,7.47,< 5.00,< 5.00,–,–,O=C1NC(NCc2ccccc2OC(F)(F)F)=N/C1=C\c1ccc2ncsc2c1
< 5.00,< 5.00,< 5.00,< 5.00,5.09,< 5.00,< 5.00,–,< 5.00,< 5.00,–,O=C1NC(NC2CCCCCC2)=N/C1=C\c1ccc2scnc2c1
< 5.00,5.83,5.38,< 5.00,8.05,< 5.00,7.62,5.31,< 5.00,< 5.00,–,O=C1NC(NC2CCCCCC2)=N/C1=C\c1ccc2c(c1)CCO2
6.20,–,6.32,5.15,7.92,6.10,7.68,6.18,5.17,5.01,–,O=C1NC(NC2CCCCC2)=N/C1=C\c1ccc2ncsc2c1
–,7.46,6.92,5.92,7.80,6.10,7.64,–,–,–,–,CN1CCN(c2ccc(NC3=N/C(=C\c4ccc5c(c4)OCO5)C(=O)N3)cc2)CC1
< 5.00,5.25,< 5.00,< 5.00,6.41,5.05,6.07,< 5.00,< 5.00,–,–,O=C1NC(NC2CCCCC2)=N/C1=C\c1ccc2nnsc2c1
5.44,6.52,–,< 5.00,7.44,5.52,7.36,5.22,< 5.00,< 5.00,–,C[C@@H](NC1=N/C(=C\c2ccc3ncsc3c2)C(=O)N1)C1CCCCC1
6.10,7.55,6.41,5.76,–,5.95,7.96,5.77,< 5.00,< 5.00,–,CN1CC[C@@](C)(NC2=N/C(=C\c3ccc4ncsc4c3)C(=O)N2)C1=O (stereo in doubt)
–,5.63,–,< 5.00,–,6.10,6.27,< 5.00,< 5.00,< 5.00,6.58,O=C1NC(NC2CCCCC2)=N/C1=C\c1ccc2[nH]ncc2c1
6.90,6.92,–,5.44,8.30,6.68,7.77,5.86,< 5.00,< 5.00,–,CC(C)C[C@H](COC1CC1)NC1=N/C(=C\c2ccc3ncsc3c2)C(=O)N1
< 5.00,< 5.00,–,< 5.00,5.15,< 5.00,< 5.00,–,< 5.00,< 5.00,–,O=C1NC(NC2CCCCC2)=N/C1=C\c1ccc2scnc2c1
6.84,6.96,–,5.57,8.40,6.38,7.89,6.01,< 5.00,< 5.00,–,CCOC[C@@H](CC(C)C)NC1=N/C(=C\c2ccc3ncsc3c2)C(=O)N1
5.60,6.16,5.24,< 5.00,–,5.15,6.71,< 5.00,< 5.00,< 5.00,–,O=C1NC(Nc2cccc(C(F)(F)F)c2)=N/C1=C\c1ccc2ncsc2c1
< 5.00,5.55,–,< 5.00,6.76,< 5.00,6.57,< 5.00,< 5.00,< 5.00,–,O=C1NC(NC2CCCCCC2)=N/C1=C\c1ccc2nnsc2c1
6.36,7.57,6.18,5.81,–,6.39,8.05,6.03,< 5.00,< 5.00,–,CC(C)C[C@H](CF)NC1=N/C(=C\c2ccc3ncsc3c2)C(=O)N1
6.10,6.92,–,5.39,7.54,5.67,7.26,5.95,< 5.00,< 5.00,–,CN1CCN(c2cnc(NC3=N/C(=C\c4ccc5ncsc5c4)C(=O)N3)cn2)CC1
6.29,7.70,6.52,5.22,8.52,6.04,–,6.16,< 5.00,< 5.00,8.52,COC(=O)[C@@H](NC1=N/C(=C\c2ccc3ncsc3c2)C(=O)N1)C(C)O (stereo partly specified)
5.48,5.86,–,< 5.00,7.43,5.72,6.05,5.73,< 5.00,< 5.00,–,O=C1NC(NC2CCCCC2)=N/C1=C\c1ccc2[nH]cnc2c1
–,6.95,6.15,5.65,8.30,6.16,7.89,–,< 5.00,< 5.00,–,O=C1NC(Nc2ccccc2)=N/C1=C\c1ccc2ncsc2c1
5.82,5.66,5.99,< 5.00,7.26,5.85,7.17,5.52,< 5.00,< 5.00,–,Cn1cc2cc(/C=C3\N=C(NC4CCCCCC4)NC3=O)ccc2n1
6.44,5.40,6.51,< 5.00,6.90,5.65,6.85,5.79,< 5.00,< 5.00,–,Cn1ncc2cc(/C=C3\N=C(NC45CC6CC(CC(C6)C4)C5)NC3=O)ccc21
5.97,6.74,6.06,5.34,–,6.67,7.77,6.03,< 5.00,< 5.00,–,O=C1NC(NC2CC3(CCC3)C2)=N/C1=C\c1ccc2ncsc2c1
6.02,5.65,5.27,5.28,7.07,5.24,6.66,5.57,< 5.00,< 5.00,–,CC(C)C[C@H](COCc1ccccc1)NC1=N/C(=C\c2ccc3ncsc3c2)C(=O)N1
